Tests used:
[1] = cited from earlier work
SK-N-SH NB cells = experiment: Subcellular distribution of 125I in SK-N-SH NB cells; format: cell-based, human; conditions: SK-N-SH NB cells exposed at 80 kBq/mL for 1 h, harvested 24 h later
Description: (§1) Conjugate 17b was used for further testing. […] All drugs were designed so that they produce either 5-radioiodo-2′-deoxyuridine [RIUdR] or its 5′-monophosphate. Both metabolites can participate in the DNA synthesis allowing deposits of high LET radiation directly within the DNA structure. RIUdR, incorporated into the DNA of cancer cells in place of thymidine, is retained there for the life of the cell. It is extraordinarily lethal when labeled with Auger-electron-emitting radioiodines, which produce a cascade of monoenergetic electrons known as conversion and Auger electrons. These electrons deposit their energy within a tiny sphere around the decaying atom, i.e., the effective distance of Auger electrons is less than the diameter of the cancer cell nucleus. As a result, their cytotoxicity is dependent on the intranuclear localization, i.e., within the DNA or immediate vicinity of the DNA. Radiotoxicity of several reagents was tested in SK-N-SH cells. Tested drugs eradicate NB cells more efficiently than MIBG.

human NB SK-N-SH cells = experiment: Radiotoxicity, clonogenic assay in SK-N-SH cells; format: cell-based
Description: as §1
FIG. 14A-C show results of a pilot radiotoxicity study comparing the reproductive integrity of colonies of human NB SK-N-SH cells treated with conjugate 17b (radiolabeled with ^125I) and ^125IMIBG at 37 kBq/mL, two weeks after treatment.

SK-N-SH cells = experiment: Uptake by SK-N-SH cells competed by MIBG; format: cell-based, human; conditions: competition with MIBG (FIG. 16)
[2] = Stability in mouse serum (HPLC of extracts); format: in vitro ADME; conditions: up to 24 h, ambient temperature or 37° C.
Method: (§2) Incubations: into a solution (1980 μL) of serum (mouse, human), buffer or cells media, a sample of (17a), (185-390 kBq) in 15-20 μL of 25% EtOH/PB (100 mM, pH 6.1) was added; the resulting mixture was briefly vortexed and kept (up to 24 h) at ambient temperature or inside the incubator (37° C./˜5% CO2). At each time point, a volume of 1 mL was withdrawn, the extract of sample prepared and analyzed by HPLC.
(§3) Preparation of extracts: a sample (1 mL) from each incubated mixture with compound (17a) was treated with MeCN (1 mL), vortexed, and centrifuged (2,000 rpm, 15 min). The supernatant was removed and the radioactivity measured. Aliquots of supernatant (250-500 μL) were acidified to pH˜6 with 0.05 N TFA (2-8 μL). The excess of MeCN was evaporated with a stream of nitrogen and water (100 μL) added. A mixture was passed through a 0.2μ filter and each sample (˜100 μL, 95-185 kBq) injected on HPLC system.
(§4) HPLC analysis of extracts: continued on Columbus C18 100 Å (5 μm, 4.6×250 mm) column; eluted at 0.8 mL/min with a linear gradient of MeCN from 0 to 95% over 60 min and 95% MeCN was kept for a period of further 20 min, detecting the radioactivity (Bioscan NaI(T)). Both solvents contained 0.07% TFA (v/v).

[3] = Stability in human serum (HPLC of extracts); format: in vitro ADME; conditions: up to 24 h, ambient temperature or 37° C.
Method: as §2, §3, §4

SMILES: N=C(N)NCc1cccc([131I])c1 [^131IMIBG, ^131I-metaiodobenzylguanidine]
- long-term survivors developing thyroid disorders ([1]; long-term survivors treated with 131IMIBG): over 80%
- maximum tolerated dose ([1]; patients with neuroblastoma): > 600 MBq/kg

SMILES: N=C(N)NCCCCCC(=O)OC[C@H]1O[C@@H](n2cc([125I])c(=O)[nH]c2=O)C[C@@H]1O [conjugate 17b, 5-[^125I]-Iodo-5′-O-hexanoylguanidino-2′-deoxyuridine]
- subcellular distribution of 125I (SK-N-SH NB cells): All ^125I is associated with the DNA fraction
- retention within the cell (human NB SK-N-SH cells): trapped within the cell
- radiotoxicity (reproductive integrity of colonies) (human NB SK-N-SH cells; 37 kBq/mL, two weeks after treatment, compared with 125IMIBG): far more radiotoxic
- cells receiving a lethal dose of radiation, clonogenic assay (human NB SK-N-SH cells; 1 h with the drug, compared with 125IMIBG): more cells receive a lethal dose of radiation
- uptake by SK-N-SH cells (SK-N-SH cells): competed by MIBG

SMILES: N=C(N)NCCC(=O)OC[C@H]1O[C@@H](n2cc([125I])c(=O)[nH]c2=O)C[C@@H]1O [17a, 5-[^125I]-Iodo-5′-O-propionylguanidino-2′-deoxyuridine]
- stability in mouse serum [2]: limited
- stability in human serum [3]: limited

Reference: patent publication US10874752B2, “MIBG analogs and uses thereof” (Board of Regents of The University of Nebraska, priority 2015, dated 2020)
